A short description of this series: Franz diffusion cell permeability of GI tissue exposed to ultrasound, scintigraphy of tissue and receiver chamber. To be noted: 1-MHz, 1.4 W/cm^2; 5 min ultrasound + 55 min passive diffusion vs 30 min + 30 min.

inulin: the “transport into or across the tissue, effect of irradiation profile” value is recorded as “the longer irradiation time was more effective”.

For the origin of these results see US20140228715A1, “Method and Apparatus for Delivering a Substance” (The General Hospital Corporation, priority 2011, published 2014).
